Several values for one entry are separate records, joined by “and”; a condition that tells them apart may be missing. Identical values can stand only once.

The text below walks through data of the Deep4Chem optical property database.

This data set can be described thus: solvent given as SMILES.

In turn, `CC1=CC(C)=[N+]2C1=C(c1ccc(N(C)C)cc1)c1c(C)cc(C)n1[B-]2(F)F` yielded an absorption maximum (in C1CCOC1) of 499 nm; an absorption maximum (in CC#N) of 496 nm; an absorption maximum (in CC(=O)C(C)(C)C) of 496 nm; an absorption maximum (in CC(C)=O) of 496 nm; an absorption maximum (in CCCCCC) of 500 nm; an absorption maximum (in CCOC(C)=O) of 498 nm. Moreover, the absorption maximum (in CO) was 500 nm and 492 nm.
As to `NCCCCCCCCCCCCN1C(=O)c2ccc3c4ccc5c6c(ccc(c7ccc(c2c37)C1=O)c64)C(=O)N(c1ccc(O)cc1)C5=O`, the absorption maximum (in CN(C)C=O) worked out at 525 nm.
Consider `CCc1c(C(=O)OC)c(C(=O)OC)c2ccc(-c3ccccc3)nn12`, for which the absorption maximum (in C1CCCCC1) was determined as 399.4 nm.
Where the note is “in Cc1ccccc1”, `O=S1(=O)c2ccccc2Oc2cc(N3c4ccccc4C4(c5ccccc53)c3ccccc3N(c3ccc5c(c3)Oc3ccccc3S5(=O)=O)c3ccccc34)ccc21` yielded an absorption maximum of 359.89 nm.
For `CCOC(=O)/N=c1/oc2cc(OC)ccc2cc1C#N`, the absorption maximum (in ClCCl) was 370 nm.
In the case of `CCCCCCCN1C(=CC2=C([O-])C(=CC3=[N+](CCCCCCC)c4ccccc4C3(C)C)C2=C(C#N)C#N)C(C)(C)c2ccccc21`, the absorption maximum was found to be 689 nm (in C1COCCO1), 673 nm (in CCO), 681 nm (in CN(C)C=O) and 685 nm (in ClC(Cl)Cl).
For `CC[N+]1(CC)CN2C(=N1)C(C(=O)O)=Cc1cc(SC)ccc12`, the absorption maximum (in O) was found to be 397 nm.
With `O=C1O/C(=C\c2cccs2)c2ccccc21`, the absorption maximum (in CC#N) is given as 355 nm.
On to `c1ccc(CO[Si]23n4c5c6ccccc6c4/N=C4N=C(/N=c6/c7ccccc7c(n62)=c2c6ccccc6c(n23)=N5)c2ccccc2\4)cc1` (configuration not stated), for which the absorption maximum (in CN(C)C=O) amounted to 658 nm.
In the case of `COC(=O)c1[nH]c(-c2ccc([N+](=O)[O-])cc2)c2nnc3ccc(OC)cc3c12`, the absorption maximum (in ClCCl) came to 436 nm.
With `CCN(C)c1ccc(C2=C3C(C)=CC(/C=C/c4ccc(OCC(=O)OC)cc4)=[N+]3[B-](F)(F)n3c(C)cc(C)c32)cc1`, the absorption maximum (in CO) amounted to 567 nm.
In turn, `CC(C)c1cc(C(C)C)c(B2c3cc(N4c5ccccc5C(C)(C)c5ccccc54)ccc3N(c3ccccc3)c3ccc(N4c5ccccc5C(C)(C)c5ccccc54)cc32)c(C(C)C)c1` yielded an absorption maximum (in C1CCCCC1) of 374.83 nm.
Where the note is “in CC#N”, `Cc1ccc(S(=O)(=O)Nc2c(/C=C/c3ccccc3)sc(-c3ccc(N(C)C)cc3)c2-c2ccsc2)cc1` yielded an absorption maximum of 465 nm.
Turning to `CN(C)c1ccc(C#Cc2ccc3ccc4c(C#Cc5ccc(N(C)C)cc5)ccc5ccc2c3c54)cc1`, the absorption maximum (in C1COCCO1) is listed as 430 nm; the absorption maximum (in CC(C)=O) is 447 nm; the absorption maximum (in CCCCCC) is on record as 439 nm; the absorption maximum (in CCCCCCO) was 430 nm; the absorption maximum (in CCO) stood at 431 nm; the absorption maximum (in CCOC(C)=O) stood at 431 nm. In addition, the absorption maximum (in CO) turned out to be 436 nm, the absorption maximum (in Cc1ccccc1) is 433 nm and the absorption maximum (in ClCCl) turned out to be 439 nm.
With `COc1nc(Cl)nc(Nc2ccc3c4c(cccc24)C(=O)c2ccccc2-3)n1`, the absorption maximum is, setting by setting: (in CC#N) 407 nm; (in CC(C)=O) 410 nm; (in CC(C)O) 417.01 nm; (in CCOC(C)=O) 411.02 nm; (in CO) 414.94 nm; (in Cc1ccccc1) 419.99 nm. The absorption maximum is 418.06 nm (in Clc1ccccc1), 415.97 nm (in N#Cc1ccccc1) and 414.94 nm (in O=C1CCCCC1).
For the compound `O=C(O)CCNc1cccc2ccccc12`, the absorption maximum (in CCO) amounted to 330 nm.
In the case of `Cc1cc(-n2c3ccccc3c3ccccc32)ccc1-c1ccc(S(=O)(=O)c2ccccc2)cc1C`, the absorption maximum (in Cc1ccccc1) worked out at 340 nm.
Regarding `COc1ccc(C2=C3C(C)=CC(C)=[N+]3[B-](F)(F)n3c(C)cc(C)c32)cc1`, the absorption maximum (in Cc1ccccc1) was determined as 504 nm.
Still for that read-out and setting: for `c1ccc(-c2nc(-c3ccccc3)nc(-c3ccc(-n4c5ccccc5c5cc(-n6c7ccccc7c7ccccc76)ccc54)c4c5ccccc5n(-c5ccccc5)c34)n2)cc1` the value was 378.07 nm.
Regarding `Nc1cccc2c1C(=O)c1ccccc1-2`, the absorption maximum by setting is: (in C1CCCCC1) 407 nm; (in CC#N) 420 nm; (in CCO) 431 nm; (in c1ccccc1) 416 nm.
With `Cc1ccccc1[B-]1(c2ccccc2C)n2nc(C(F)(F)F)cc2-c2c3ccccc3cc[n+]21`, the absorption maximum is, setting by setting: (in C1CCCCC1) 374 nm; (in Cc1ccccc1) 380 nm; (in ClCCl) 374 nm.
Compound `COc1ccccc1-n1nc(C#N)c(N2CCCC2)n1` came in with an absorption maximum (in CC#N) of 318 nm.
Take `O=C1c2ccccc2-c2nc3c(F)c(F)c(F)c(F)c3n21`: the absorption maximum (in ClCCl) came out at 337 nm.
On to `CCCC1=Cc2nc1ccc1[nH]c(cc1CCOC)c1nc(ccc3[nH]c2cc3CCC)C(CCC)=C1`, for which the absorption maximum (in Cc1ccccc1) was 637 nm.
For `N=c1oc2cccc3c4c(-c5ccccc5)oc5cccc(c(c1-c1ccccc1)c23)c54`, the absorption maximum (in ClC(Cl)Cl) is given as 397 nm.
For the compound `Cc1ccc(C(=O)OCc2ccc3c4cccc5cccc(c6cccc2c63)c54)cc1`, the absorption maximum (in CCO) is reported as 438 nm.
For the compound `Cc1cccc(C)c1Nc1ccc(/C=C/c2cccnc2)cc1`, the absorption maximum (in CC#N) is reported as 351 nm and the absorption maximum (in CCCCCC) came out at 346 nm.
Under “in C1COCCO1”, `COc1ccc(C2=N/C(=C\c3ccc(C#N)cc3)C(=O)O2)cc1OC` showed an absorption maximum of 393 nm.
Turning to `CC1=CC(C)=[N+]2C1=C(c1ccccc1)c1c(C)cc(/C=C/c3ccc(O)cc3)n1[B-]2(F)F`, the absorption maximum (in O) is listed as 565 nm.
The compound `Cc1nc2cccc(-c3nc4ccccc4o3)c2c(=O)[nH]1` yielded an absorption maximum (in CN(C)C=O) of 310 nm.
The compound `COc1ccc(-c2nc(/C(C#N)=C/c3ccc(C#N)cc3)sc2-c2ccc(OC)cc2)cc1` displayed an absorption maximum (in CC#N) of 407 nm.
Same read-out and setting: for `CC1=CC(C)=[N+]2C1=C(c1ccccc1)c1c(C)cc(/C=C/c3ccccc3)n1[B-]2(F)F` the value was 560 nm.
With `CC(C)(C)c1ccc(-c2nc3ccccc3nc2-c2cc(-c3nc4ccccc4nc3-c3ccc(C(C)(C)C)cc3)cc(-n3c4ccccc4c4ccccc43)c2)cc1`, the absorption maximum (in Cc1ccccc1) was found to be 344 nm.
`CCCCCCCCCCc1cc(-c2cc(CCCCCCCCCC)c(-c3cccs3)s2)sc1-c1cccs1`: the absorption maximum (in CCCCCCCCCCCCCC) is listed as 380 nm.
`COC(=O)C1=NNC(C(=O)OC)=C2c3ccccc3C(=O)c3ccccc3C12` (configuration not stated): the absorption maximum (in CC#N) amounted to 391 nm.
`Cc1cccc2nc(-c3cc(=O)c(OCc4ccccc4)co3)c(NC3CCCCC3)n12` registered an absorption maximum (in ClCCl) of 352 nm.
`c1ccc(-c2nc(-c3ccccc3)nc(-c3ccc(-n4c5ccccc5c5c4c4ccccc4n5-c4ccccc4)cc3)n2)cc1` returned an absorption maximum (in Cc1ccccc1) of 398 nm.
For the setting “in CS(C)=O”, `CSc1ccc(-c2nc3sc4ccccc4c3s2)cc1` gave an absorption maximum of 365 nm.
For `O=C(Cc1ccccc1)OCc1ccc2c3cccc4cccc(c5cccc1c52)c43`, the absorption maximum (in CCO) was found to be 438 nm.
`CCN(CC)c1ccc(-c2nc3c(nc2-c2ccc(B(c4c(C)cc(C)cc4C)c4c(C)cc(C)cc4C)cc2)c2ccccc2n3C)cc1` gave an absorption maximum (in C1CCOC1) of 405 nm.
Take `C1=[N+](c2ccccc2)[B-](c2ccccc2)(c2ccccc2)Oc2c1ccc1c3c(ccc21)C=[N+](c1ccccc1)[B-](c1ccccc1)(c1ccccc1)O3`: the absorption maximum runs as follows: (in Cc1ccccc1) 536 nm; (in ClCCl) 529 nm.
With `CC[n+]1c(C=C2C(=O)C(C=C3N(C)c4ccc(Cl)cc4C3(C)C)=C2[O-])[se]c2ccccc21`, the absorption maximum turned out to be 644 nm (in CO), 655 nm (in ClC(Cl)Cl) and 659 nm (in ClCCl).
For `FC(F)(F)c1ccc(-c2pc3ccccc3s2)cc1` (configuration not stated), the absorption maximum (in CC#N) is reported as 331 nm.
Turning to `CCCCN1C(=O)c2ccc3c4ccc5c6c(ccc(c7ccc(c2c37)C1=O)c64)C(=O)N(CCCC)C5=O`, where the note is “in ClC(Cl)Cl”, the absorption maximum is recorded as 526 nm.
Under “in CS(C)=O”, `COc1cc2sc3nc(-c4ccccc4OC)sc3c2cc1OC` showed an absorption maximum of 365 nm.
On to `N#Cc1nc2c3ccc(-n4c5ccccc5c5ccccc54)cc3c3cc(-n4c5ccccc5c5ccccc54)ccc3c2nc1C#N`, for which the absorption maximum (in Cc1ccccc1) came to 442 nm.
For `Oc1c(-c2cccs2)cccc1-c1nc2ccccc2s1`, the absorption maximum runs as follows: (in ClCCl) 356 nm; (in O) 346 nm.
Turning to `O=c1c2ccccc2n2c3ccc(-c4ccccc4)cc3c(=O)c3cccc1c32`, the absorption maximum reads like this: (in CC#N) 442 nm; (in CCCCCC) 434 nm; (in CCCCOCCCC) 437 nm; (in CCOC(C)=O) 439 nm; (in CN(C)C=O) 445 nm.
Take `O=C1CC(c2ccccc2)c2c(c3ccccc3c3nc4ccccc4nc23)O1` (configuration not stated): the absorption maximum (in ClC(Cl)Cl) is listed as 410 nm.
As to `C(/C=C/c1ccc(N(c2ccccc2)c2ccccc2)cc1)=C\c1ccncc1`, the absorption maximum came to 395 nm (in C1COCCO1), 396 nm (in CC#N), 393 nm (in CCCCCCC) and 399 nm (in CO).
`COc1ccc(-c2ccc3c(c2)c2cc(-c4ccc(OC)cc4)ccc2n3-c2ccc(C(=O)c3ccc4sc5ccccc5c4c3)cc2)cc1` registered an absorption maximum (in Cc1ccccc1) of 366 nm.
In the case of `C=CCNc1ccc2ccc3oc4cc(=[N+](C)C)ccc-4nc3c2c1`, the absorption maximum is reported as 569 nm (in CC#N), 572 nm (in CCO), 582 nm (in ClCCl) and 552 nm (in O).
As to `C(#Cc1ccccc1)C(C#Cc1ccccc1)=c1c2ccccc2c(=C(C#Cc2ccccc2)C#Cc2ccccc2)c2ccccc12`, the absorption maximum (in ClC(Cl)Cl) was determined as 540 nm.
For `CC(=O)OCCN1C(=O)c2cccc3c(Oc4ccc(C=O)cc4)ccc(c23)C1=O`, the absorption maximum (in ClC(Cl)Cl) stood at 353 nm.
Turning to `Cc1ccc(-c2[nH]c(=O)n3c2-c2ccccc2C3=O)c(O)c1`, the absorption maximum (in CC#N) was found to be 393 nm, the absorption maximum (in CO) stood at 397 nm and the absorption maximum (in ClCCl) is 393 nm.
